In US20260345582A1, “PRODRUG FOR ANTI-AGING RELATED DISEASES AND USE METHOD THEREOF” (Beijing SunCell Bio-Medical Co., Ltd., priority 2022, published 2026):

Test: liver microsomal metabolic stability, mouse
Protocol: Hepatic Microsomal Metabolic Stability
A13bGa1 was co-incubated with the mouse, rat, canine, monkey and human […] and the incubation medium at a final drug concentration of 1 μM in the incubation system for 60 minutes. Samples were taken and analyzed at time points 0, 15, 30, 45 and 60 minutes during the incubation. The reaction was terminated by adding an amount of acetonitrile solution containing the internal standard. […] The residual percentage, half-life, intrinsic clearance, amplified clearance, hepatic clearance and hepatic extraction ratio were determined. The entire experiment was performed in triplicate. All data calculations were performed by Microsoft Excel software. Peak areas were detected by extracting the ionic spectrum. The in vitro half-life (t1/2) of the parent compound was detected by fitting the natural logarithm of the percentage elimination of the parent compound linearly to time.
The in vitro intrinsic clearance (in μL/min/mg protein) was calculated using the following equation: in vitro CLint=kV/N
The amplified clearance (in mL/min/kg) was calculated using the following equation: Amplified CLint=kV/N×the amplification factor
The hepatic clearance (in mL/min/kg) was calculated using the following equation: The predicted hepatic CLH=(Q×Fu/RB×the amplified CLint)/(Q+Fu/RB×the amplified CLint) • V=the incubation volume per well (0.2 mL); • N=the total amount of protein (mg) • Q=the hepatic blood flow (mL/min/kg) • Fu=the plasma free rate (assumed to be 1) • RB=the whole blood partition coefficient (assumed to be 1)
The hepatic uptake rate was calculated using the following equation:
The hepatic extraction ratio (ER)=(the predicted hepatic CLH)/Q

Cc1c(-c2ccc(N3CCc4cccc(C(=O)Nc5nc6ccccc6s5)c4C3)nc2C(=O)OCc2ccc(O[C@@H]3O[C@H](CO)[C@H](O)[C@H](O)[C@H]3O)c([N+](=O)[O-])c2)cnn1CC12CC3CC(CC(C3)C1)C2 [Compound A13bGa1]
The hepatic extraction ratio (E): 0.40
The intrinsic clearance in vitro Clint (1 μM, 60 min): 13.79 μL/min/mg protein
The predicted intrinsic hepatic clearance Clint (Fu and RB assumed to be 1): 36.24 mL/min/kg
CLint scaled at 1 µM (microsomes): 60.7 mL/min/kg
half-life at 1 h, 1 µM (microsomes): 1.68 h
